Consider twelve compounds from patent US20240343694A1, “PYRIMIDINE DERIVATIVE, METHOD FOR PREPARING SAME, AND PHARMACEUTICAL COMPOSITION FOR PREVENTING OR TREATING CANCER COMPRISING SAME AS ACTIVE INGREDIENT” (KOREA RESERARCH INSTITUTE OF CHEMICAL TECHNOLOGY, priority 2021, published 2024).

The structures appear in SMILES notation.

For one assay, the target named is EGFR del19 (Homo sapiens (Human), UniProt P00533, DEL746-750). Kind of assay: HTRF inhibitory activity against EGFR mutant enzyme (EGFR del19). The following applies: recombinant enzyme, 37° C. for 2 hours. The assay is classed as biochemical. The gist of the method: (§1)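 IC50 was derived from 7 concentrations by HTRF: Eu-anti-pTyr and streptavidin-XL665 for 1 h at room temperature, with the 615/665 nm ratio read. The kinase reaction ran 2 h at 37 °C in Tris pH 7.5 buffer with ATP (stated 50 mM) and biotinylated peptide (0.5 mM). Enzyme was preincubated with compound before substrate was added.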
EGFR del19, sequence (P00533 other isoform, or with tags, fused parts or gaps del 1-668/del 746-750 limits assumed): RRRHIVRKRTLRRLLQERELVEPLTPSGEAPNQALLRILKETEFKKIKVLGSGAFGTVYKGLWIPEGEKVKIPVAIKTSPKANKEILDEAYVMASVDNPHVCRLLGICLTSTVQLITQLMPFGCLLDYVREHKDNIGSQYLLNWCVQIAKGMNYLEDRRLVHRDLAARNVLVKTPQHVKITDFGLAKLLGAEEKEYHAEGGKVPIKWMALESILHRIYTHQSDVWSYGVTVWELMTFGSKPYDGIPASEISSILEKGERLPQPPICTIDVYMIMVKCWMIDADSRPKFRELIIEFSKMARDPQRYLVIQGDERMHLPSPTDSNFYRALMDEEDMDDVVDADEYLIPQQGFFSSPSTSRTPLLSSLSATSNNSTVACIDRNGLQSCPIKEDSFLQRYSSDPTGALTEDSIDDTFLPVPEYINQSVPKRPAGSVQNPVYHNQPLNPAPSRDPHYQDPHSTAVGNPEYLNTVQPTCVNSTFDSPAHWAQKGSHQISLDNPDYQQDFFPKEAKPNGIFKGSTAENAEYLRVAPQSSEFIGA
Background: Time-resolved FRET reads energy transfer from a long-lived donor to a nearby acceptor.

The next assay addresses HER2 A775_G776insYVMA (Homo sapiens (Human), UniProt P04626, INS775YVMA). Kind of assay: HTRF inhibitory activity against HER2 mutant enzyme. The assay is classed as biochemical. The conditions noted are these: recombinant enzyme, 37° C. for 2 hours. In a few lines:
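Recombinant HER2 A775_G776insYVMA preincubated with compound, then […] and biotinylated peptide ([…]) added; 2 h at 37 °C in Tris-HCl pH 7.5 buffer with MgCl2, DTT. HTRF detection (Eu anti-phosphotyrosine/streptavidin-XL665); IC50 from 7 concentrations.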

Another assay relates to Ba/F3 HER2 G776delinsVC. Kind of assay: Growth inhibition of Ba/F3 HER2 mutant cells (CellTiter-Glo). The assay is classed as cell-based. The following applies: Mus musculus, BaF3, 72 hours. In a few lines: (§2)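 Ba/F3 cells carrying HER2 A775_G776insYVMA or G776delinsVC were seeded at 1,000 cells/well and dosed 24 h later at 0.01-10 μM (8 concentrations including 0). After 72 h, viability was read as cellular ATP by CellTiter-Glo luminescence, and IC50 values were calculated from the 8-point curves.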

Assay [1] deals with Ba/F3 HER2 A775_G776insYVMA. The description is as above. It counts as cell-based. The following applies: Mus musculus, BaF3, 72 hours. The gist of the method: as §2
Another assay deals with EGFR A763_Y764insFHEA (Homo sapiens (Human), UniProt P00533, INS763FHEA). Kind of assay: HTRF inhibitory activity against EGFR mutant enzyme (EGFR A763_Y764insFHEA). The following applies: recombinant enzyme, 37° C. for 2 hours. The assay is classed as biochemical. In a few lines: as §1
EGFR A763_Y764insFHEA, sequence (P00533 other isoform, or with tags, fused parts or gaps del 1-694/ins FHEA behind 763 limits assumed): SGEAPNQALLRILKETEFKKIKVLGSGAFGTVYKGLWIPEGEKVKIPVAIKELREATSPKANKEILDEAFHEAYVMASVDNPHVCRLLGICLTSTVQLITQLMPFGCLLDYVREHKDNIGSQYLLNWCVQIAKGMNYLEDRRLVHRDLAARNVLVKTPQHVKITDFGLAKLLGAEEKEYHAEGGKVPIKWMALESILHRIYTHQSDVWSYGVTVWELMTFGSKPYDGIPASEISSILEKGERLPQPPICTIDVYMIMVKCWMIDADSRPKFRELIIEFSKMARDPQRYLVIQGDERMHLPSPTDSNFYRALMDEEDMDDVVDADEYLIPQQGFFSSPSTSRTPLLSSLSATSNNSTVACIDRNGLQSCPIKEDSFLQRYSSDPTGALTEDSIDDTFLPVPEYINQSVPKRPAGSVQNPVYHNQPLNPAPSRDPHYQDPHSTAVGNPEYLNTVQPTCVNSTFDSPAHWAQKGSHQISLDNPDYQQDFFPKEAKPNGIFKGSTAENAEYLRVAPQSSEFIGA
The test system of assay [2] is Ba/F3 EGFR V769_D770insASV. Kind of assay: Growth inhibition of Ba/F3 EGFR mutant cells (CellTiter-Glo). The conditions noted are these: 72 hours. It counts as cell-based. In a few lines:
(§3)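 Ba/F3 cells expressing either EGFR insertion mutant were seeded at 1,000 cells/well and dosed 24 h later at eight concentrations from 0 to 10 μM. After 72 h, viability was read by CellTiter-Glo ATP signal. IC50 (μM) was fitted from the eight-point curves.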
A general note: Cellular ATP, detected with luciferase, serves as a proxy for viable cell number.

In assay [3] the test system is Ba/F3 EGFR D770_N771insSVD. The description is as above. It counts as cell-based. The conditions noted are these: Ba/F3 EGFR-D770-N771ins_SVD, 72 hours. In a few lines:
as §3

HER2 A775_G776insYVMA, sequence (P04626 other isoform, or with tags, fused parts or gaps del 1-675/ins YVMA behind 775 limits assumed): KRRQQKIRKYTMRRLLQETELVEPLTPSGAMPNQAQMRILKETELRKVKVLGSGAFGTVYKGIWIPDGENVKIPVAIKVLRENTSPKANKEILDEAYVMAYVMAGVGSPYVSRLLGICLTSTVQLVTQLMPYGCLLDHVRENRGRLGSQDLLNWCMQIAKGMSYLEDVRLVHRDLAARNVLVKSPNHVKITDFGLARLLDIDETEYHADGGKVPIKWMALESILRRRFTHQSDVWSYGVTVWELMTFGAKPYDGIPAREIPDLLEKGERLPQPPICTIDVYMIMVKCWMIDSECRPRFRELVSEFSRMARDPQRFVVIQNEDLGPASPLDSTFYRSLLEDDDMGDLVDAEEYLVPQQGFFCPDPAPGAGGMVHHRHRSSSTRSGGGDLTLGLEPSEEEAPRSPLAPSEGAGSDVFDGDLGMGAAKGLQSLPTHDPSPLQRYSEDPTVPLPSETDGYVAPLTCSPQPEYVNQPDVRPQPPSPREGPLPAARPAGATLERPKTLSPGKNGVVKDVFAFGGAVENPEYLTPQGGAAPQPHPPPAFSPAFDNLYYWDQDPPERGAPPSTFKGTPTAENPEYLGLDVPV

One may read the IC50 as the concentration that gives 50% inhibition. On to `C=CC(=O)Nc1cc(Nc2ncc(Cl)c(Nc3ccccc3N(C)C(C)=O)n2)c(OC)cc1N(C)CCN(C)C` [Example 89, N-(5-((5-chloro-4-((2-(N-methylacetamido)phenyl)amino)pyrimidin-2-yl)amino)-2-((2-(dimethylamino)ethyl)(methyl)amino)-4-methoxyphenyl)acrylamide], for which the IC50 at EGFR del19 was 20 nM; at HER2 A775_G776insYVMA, 479 nM; in the assay on Ba/F3 HER2 G776delinsVC, 10 to 30 nM; in assay [1], greater than 100 nM; at EGFR A763_Y764insFHEA, 77 nM; in assay [2] it was 30 to 50 nM. The same compound came in with an IC50 in assay [3] of 30 to 50 nM.

`C=CC(=O)Nc1cc(Nc2ncc(Cl)c(Nc3ccccc3NC(C)=O)n2)c(OC)cc1N(C)CCN(C)C` [Example 90, N-(5-((4-((2-acetamidophenyl)amino)-5-chloropyrimidin-2-yl)amino)-2-((2-(dimethylamino)ethyl)(methyl)amino)-4-methoxyphenyl)acrylamide]: the half-inhibitory concentration (IC50) on EGFR del19 is 1 nM; on HER2 A775_G776insYVMA, 37 nM; in the assay on Ba/F3 HER2 G776delinsVC it was less than 10 nM; in assay [1], greater than 100 nM; on EGFR A763_Y764insFHEA, 7 nM; in assay [2], 30 to 50 nM. In addition, the IC50 in assay [3] is 30 to 50 nM.

For the compound `C=CC(=O)Nc1cc(Nc2ncc(Cl)c(Nc3cccc4c3N(C(C)=O)CC4)n2)c(OC)cc1N(C)CCN(C)C` [Example 91, N-(5-((4-((1-acetylindolin-7-yl)amino)-5-chloropyrimidin-2-yl)amino)-2-((2-(dimethylamino)ethyl)(methyl)amino)-4-methoxyphenyl)acrylamide], the IC50 on EGFR del19 is less than 1 nM; at HER2 A775_G776insYVMA, 6 nM; in the assay on Ba/F3 HER2 G776delinsVC, less than 10 nM; in assay [1] it was less than 10 nM; at EGFR A763_Y764insFHEA it was 1 nM; in assay [2] it was less than 10 nM. This compound yielded an IC50 in assay [3] of less than 10 nM.

As for `C=CC(=O)Nc1cc(Nc2ncc(Cl)c(Nc3cccc4c3N(C(C)=O)CC4)n2)c(OC)cc1N(C)CCNC` [Example 92, N-(5-((4-((1-acetylindolin-7-yl)amino)-5-chloropyrimidin-2-yl)amino)-4-methoxy-2-(methyl(2-(methylamino)ethyl)amino)phenyl)acrylamide], the IC50 on EGFR del19 was less than 1 nM; on HER2 A775_G776insYVMA, 5 nM; with Ba/F3 HER2 G776delinsVC it was less than 10 nM; in assay [1], 30 to 50 nM; at EGFR A763_Y764insFHEA it was 1 nM; in assay [2], 10 to 30 nM. Besides, the IC50 in assay [3] was in the range of 10 to 30 nM.

In the case of `C=CC(=O)Nc1cc(Nc2ncc(Cl)c(Nc3cccc4c3N(C(=O)CC)CC4)n2)c(OC)cc1N(C)CCN(C)C` [Example 93, N-(5-((5-chloro-4-((1-propionylindolin-7-yl)amino)pyrimidin-2-yl)amino)-2-((2-(dimethylamino)ethyl)(methyl)amino)-4-methoxyphenyl)acrylamide], the half-maximal inhibitory concentration (IC50) was 1 nM on EGFR del19; 11 nM at HER2 A775_G776insYVMA; less than 10 nM in the assay with Ba/F3 HER2 G776delinsVC; 10 to 30 nM in assay [1]; 2 nM on EGFR A763_Y764insFHEA; 10 to 30 nM in assay [2]. The half-maximal inhibitory concentration (IC50) in assay [3] lay in the range of 10 to 30 nM.

As to `C=CC(=O)Nc1cc(Nc2ncc(Cl)c(Nc3cccc4c3N(C(=O)CC)CCC4)n2)c(OC)cc1N(C)CCN(C)C` [Example 94, N-(5-((5-chloro-4-((1-propionyl-1,2,3,4-tetrahydroquinolin-8-yl)amino)pyrimidin-2-yl)amino)-2-((2-(dimethylamino)ethyl)(methyl)amino)-4-methoxyphenyl)acrylamide], the 50% inhibitory concentration (IC50) on EGFR del19 was 4 nM; at HER2 A775_G776insYVMA, 292 nM; in the assay on Ba/F3 HER2 G776delinsVC it was less than 10 nM; in assay [1] it was greater than 100 nM; on EGFR A763_Y764insFHEA, 22 nM; in assay [2] it was 10 to 30 nM. Also, the 50% inhibitory concentration (IC50) in assay [3] lay within 10 to 30 nM.

Turning to `C=CC(=O)Nc1cc(Nc2ncc(Cl)c(Nc3cccc4c3N(C(C)=O)CCC4)n2)c(OC)cc1N(C)CCN(C)C` [Example 95, N-(5-((4-((1-acetyl-1,2,3,4-tetrahydroquinolin-8-yl)amino)-5-chloropyrimidin-2-yl)amino)-2-((2-(dimethylamino)ethyl)(methyl)amino)-4-methoxyphenyl)acrylamide], the IC50 at EGFR del19 was 2 nM; on HER2 A775_G776insYVMA, 54 nM; in the assay with Ba/F3 HER2 G776delinsVC, less than 10 nM; in assay [1], 30 to 50 nM; at EGFR A763_Y764insFHEA, 11 nM; in assay [2] it was 10 to 30 nM. In assay [3], this compound registered an IC50 of 10 to 30 nM.

Turning to `CC#CC(=O)Nc1cc(Nc2ncc(Cl)c(Nc3cccc4c3N(S(C)(=O)=O)CC4)n2)c(OC)cc1N(C)CCN(C)C` [Example 96, N-(5-((5-chloro-4-((1-(methylsulfonyl)indolin-7-yl)amino)pyrimidin-2-yl)amino)-2-((2-(dimethylamino)ethyl)(methyl)amino)-4-methoxyphenyl) but-2-inamide], the concentration for half-maximal inhibition (IC50) at EGFR del19 was 1 nM; at HER2 A775_G776insYVMA it was 87 nM; with Ba/F3 HER2 G776delinsVC, less than 10 nM; in assay [1] it was greater than 100 nM; on EGFR A763_Y764insFHEA it was 10 nM; in assay [2] it was less than 10 nM. This compound showed an IC50 in assay [3] of less than 10 nM.

As to `CC#CC(=O)Nc1cc(Nc2ncc(Cl)c(Nc3cccc4c3N(C(C)=O)CC4)n2)c(OC)cc1N(C)CCN(C)C` [Example 97, N-(5-((4-((1-acetylindolin-7-yl)amino)-5-chloropyrimidin-2-yl)amino)-2-((2-(dimethylamino)ethyl)(methyl)amino)-4-methoxyphenyl) but-2-inamide], the IC50 is 15 nM on EGFR del19; 258 nM on HER2 A775_G776insYVMA; less than 10 nM in the assay on Ba/F3 HER2 G776delinsVC; greater than 100 nM in assay [1]; 280 nM on EGFR A763_Y764insFHEA; 10 to 30 nM in assay [2]. Also, in assay [3], the 50% inhibitory concentration (IC50) is 10 to 30 nM.

Turning to `CC#CC(=O)Nc1cc(Nc2ncc(Cl)c(Nc3ccc(C)cc3N(C)S(C)(=O)=O)n2)c(OC)cc1N(C)CCN(C)C` [Example 98, N-(5-((5-chloro-4-((4-methyl-2-(N-methylmethylsulfonamido)phenyl)amino)pyrimidin-2-yl)amino)-2-((2-(dimethylamino)ethyl)(methyl)amino)-4-methoxyphenyl) but-2-inamide], the half-inhibitory concentration (IC50) at EGFR del19 is less than 1 nM; on HER2 A775_G776insYVMA it was 53 nM; in the assay with Ba/F3 HER2 G776delinsVC, less than 10 nM; in assay [1], greater than 100 nM; at EGFR A763_Y764insFHEA it was 9 nM; in assay [2] it was 10 to 30 nM. Besides, the concentration for half-maximal inhibition (IC50) in assay [3] was 10 to 30 nM.

Consider `C=CC(=O)Nc1cc(Nc2ncc(C#N)c(Nc3cccc4c3N(C(C)=O)CC4)n2)c(OC)cc1N(C)CCN(C)C` [Example 99, N-(5-((4-((1-acetylindolin-7-yl)amino)-5-cyanopyrimidin-2-yl)amino)-2-((2-(dimethylamino)ethyl)(methyl)amino)-4-methoxyphenyl)acrylamide], for which the IC50 at EGFR del19 was 1 nM; at HER2 A775_G776insYVMA, 19 nM; in the assay on Ba/F3 HER2 G776delinsVC it was less than 10 nM; in assay [1], 10 to 30 nM; at EGFR A763_Y764insFHEA, 3 nM; in assay [2], 10 to 30 nM. The compound further returned an IC50 in assay [3] of 10 to 30 nM.

Take `C=CC(=O)Nc1cc(Nc2nccc(Nc3cccc4c3N(C(C)=O)CC4)n2)c(OC)cc1N(C)CCN(C)C` [Example 100, N-(5-((4-((1-acetylindolin-7-yl)amino)pyrimidin-2-yl)amino)-2-((2-(dimethylamino)ethyl)(methyl)amino)-4-methoxyphenyl)acrylamide]: the half-inhibitory concentration (IC50) at EGFR del19 was 3 nM; on HER2 A775_G776insYVMA, 225 nM; with Ba/F3 HER2 G776delinsVC, less than 10 nM; in assay [1], greater than 100 nM; at EGFR A763_Y764insFHEA, 9 nM; in assay [2] it was 10 to 30 nM. In assay [3], this compound came in with a half-inhibitory concentration (IC50) of 10 to 30 nM.
